Laboratory results from publication PMC5663708, “Novel Benzylidene Thiazolidinedione Derivatives as Partial PPARγ Agonists and their Antidiabetic Effects on Type 2 Diabetes” (Scientific Reports, 2017).
Read-outs that look alike come from different tables or passages of the source.

Assays:
[1] = Human liver microsomal stability; assay type: in vitro ADME; settings: 37.5 °C, LM conc 0.4 mg/mL; for half-life: read-out: T1/2,int
Description: The oral bioavailability of compounds in terms of Caco-2 and MDCK-II permeability and the P-glycoprotein (P-gp) efflux ratio were assessed. The in vitro intrinsic half-life (T1/2,int) and the apparent intrinsic clearance (CLint,app) of compounds were also measured after incubation with human liver microsomes at 37.5 °C[65]. […] Quantification was done by LC-MS/MS. P-gp substrate activity was assessed by the efflux ratio (the ratio of Papp in the B-to-A direction over that in the A-to-B direction). […] P-gp is an ATP-dependent transporter on the apical plasma membrane of enterocytes that functions to limit the entry of drugs into the cell.
Highly cleared compounds in vitro are likely to be rapidly cleared in vivo resulting in a short duration of action.

[2] = system: NIH/3T3 mouse embryonic fibroblast cells; test: XTT cytotoxicity assay on NIH/3T3 cells; settings: for cell viability compared with Rosiglitazone: especially at 316 and 1000 μM
Description: XTT is reduced to soluble formazan by this enzyme and formazan is quantified and directly proportional to the number of viable cells. […] NIH/3T3 cells were seeded at 1 × 10^4 cells into each well of 96-well plates. […] The XTT assay (Xenometrix, Allschwil, Switzerland) was performed according to the manufacturer’s instructions, after 24 h incubation with the compounds. The absorbance was determined after 2 h incubation at 480 nm with a reference wavelength of 680 nm using a microplate reader (BioTek, USA). […] The stock solutions of the compounds were prepared in DMSO and further dilutions were made with fresh culture medium. The final DMSO concentration was under 0.1%. Rosiglitazone and Pioglitazone were used as positive controls. All data were obtained from 3 independent experiments in quadruplicates.

[3] = molecular target: T1, human PPARγ (hPPARγ) (Homo sapiens, UniProt P37231); test: GAL-4 PPAR chimeric receptor transactivation assay in transiently transfected HepG2 cells; assay type: cell-based; settings: for EC50: Gal4-hPPARγ-LBD, HepG2 cells, concentration-response curve; for Emax: maximum induction of Rosiglitazone defined as 100%; for agonist activity on hPPARα, hPPARγ, hPPARβ/δ subtypes: tested at 5 μM and 25 μM, compared with reference agonists
T1 construct: expressed in transfected cells; host or cells: HepG2 (human hepatoblastoma), transient calcium phosphate transfection
T1 sequence (P37231 238-503 limits assumed): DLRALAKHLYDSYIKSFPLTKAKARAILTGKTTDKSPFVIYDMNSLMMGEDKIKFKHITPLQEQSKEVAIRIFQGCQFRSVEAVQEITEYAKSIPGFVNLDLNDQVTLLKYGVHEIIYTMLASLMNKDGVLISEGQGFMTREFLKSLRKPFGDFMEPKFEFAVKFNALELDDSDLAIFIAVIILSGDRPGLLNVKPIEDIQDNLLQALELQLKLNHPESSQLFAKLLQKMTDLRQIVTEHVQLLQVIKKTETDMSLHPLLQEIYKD

[4] = molecular target: T2, PPARγ (Homo sapiens, UniProt P37231); test: SPR-based Biacore binding assay on immobilized PPARγ; settings: injected 0.5 to 10 µM
T2 sequence (P37231 1-505): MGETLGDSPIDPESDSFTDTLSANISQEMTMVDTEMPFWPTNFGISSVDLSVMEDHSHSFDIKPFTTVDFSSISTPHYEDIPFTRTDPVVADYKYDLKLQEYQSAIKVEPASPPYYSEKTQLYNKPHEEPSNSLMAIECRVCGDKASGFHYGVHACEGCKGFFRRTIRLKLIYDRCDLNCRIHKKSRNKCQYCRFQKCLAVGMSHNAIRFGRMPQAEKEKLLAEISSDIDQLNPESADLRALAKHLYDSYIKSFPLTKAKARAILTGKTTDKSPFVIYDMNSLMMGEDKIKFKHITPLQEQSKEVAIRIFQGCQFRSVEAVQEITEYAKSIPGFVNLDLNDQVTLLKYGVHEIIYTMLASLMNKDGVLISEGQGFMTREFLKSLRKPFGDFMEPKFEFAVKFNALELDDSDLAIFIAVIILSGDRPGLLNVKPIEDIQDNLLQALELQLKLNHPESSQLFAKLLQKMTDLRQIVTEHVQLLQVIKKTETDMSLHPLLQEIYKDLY
Description: […]. SPR analyses were carried out on a BIACORE 3000 instrument (GE-Healthcare). A PPARγ, surface was generated using a research-grade CM5 sensor chips (GE Healthcare). The protein (100 µg/ml in 10 mM CH3COONa, pH 5.0) was immobilized using a standard amine-coupling protocol, to obtain densities of 4 kRU. Testing compounds were dissolved in 100% DMSO to obtain 10 mM solutions, and then diluted in PBS containing variable amounts of DMSO, achieving a final DMSO concentration of 0.1%. For each molecule a five-point concentration series (0.5 µM, 1 µM, 2,5 µM, 5 µM and 10 µM) was set up. SPR experiments and data elaboration were carried out as reported elsewhere.

In the case of `CCCCNC(=O)CN1C(=O)S/C(=C\c2ccccc2)C1=O` [1a], the “CLint,app” value ([1]; human liver microsomes) is reported as 169.81 µL/min/mg, the “T1/2,int” value ([1]; human liver microsomes) is reported as 10.20 min and the IC50 ([2]; NIH/3T3 cells, XTT, 24 h incubation) is reported as greater than 1000 µM. The EC50 [3] was 7 ± 1.3 µM, the Emax [3] was 5.3 ± 0.3% and the “agonist activity on hPPARα, hPPARγ, hPPARβ/δ subtypes” value (“agonist activity … hPPARβ/δ subtypes” for short) [3] was “weak to moderate selective activity towards PPARγ”. The Kd [4] was 38.3 ± 1.8 µM.
In the case of `CCN(CC)C(=O)CN1C(=O)S/C(=C\c2ccccc2)C1=O` [1i], the half-life ([1]; human liver microsomes) is reported as 92.5 min, the IC50 ([2]; Mus musculus, NIH3T3, 24 h) is reported as greater than 1000 µM and the “cell viability compared with Rosiglitazone” value ([2]; NIH/3T3 cells) is reported as “significantly higher viability than Rosiglitazone”. The EC50 [3] was 9.6 ± 0.8 µM, the Emax ([3]; HepG2, read-out: Emax) was 23 ± 5% and the “agonist activity … hPPARβ/δ subtypes” value [3] was “weak to moderate selective activity towards PPARγ”. For the same compound, the Kd [4] was 35.7 ± 2.6 µM.
Work on `CCCCNC(=O)CN1C(=O)S/C(=C\c2ccc(Cl)cc2)C1=O` [3a] yielded a half-life ([1]; human liver microsomes) of 53.3 min, a microsomal CLint ([1]; human, liver microsomes, read-out: CLint,app) of 32.5 µL/min/mg and an IC50 ([2]; Mus musculus, NIH3T3, 24 h) of 966 ± 10 µM. The “cell viability compared with Rosiglitazone” value ([2]; NIH/3T3 cells) was “significantly higher viability than Rosiglitazone”, the EC50 [3] was 5.9 ± 0.6 µM and the Emax ([3]; HepG2, read-out: Emax) was 31.6 ± 1%. The “agonist activity … hPPARβ/δ subtypes” value [3] was “selective activity towards PPARγ” and the Kd [4] was 32 ± 1.5 µM.
